In ChEMBL document CHEMBL5724914, “Linking interpersonal differences in gut microbiota composition and drug biotransformation activity” (2024):

Key:
[1] = (§1) The drug is tested on Z-018 corresponding to pig gut metagenome with ENA study accession number: PRJEB37062 and ENA sample accession number: ERS12561817 for biotransformation under anaerobic condition. The drug concentrations were measured over 9 timepoints collected between 0 and 24 hours of incubation by liquid-chromatography-coupled mass spectrometry (LC–MS); conditions: 2 µM
[2] = human gut metagenome, 24 h, 2 µM
[3] = human gut metagenome, 24 h, 2 µM; remark: listed apart in the source
[4] = as §1, with “WLS-310” for “Z-018”, “human” for “pig”, “ERS12561785” for “ERS12561817”; conditions: 2 µM
[5] = as §1, with “WLS-170” for “Z-018”, “human” for “pig”, “ERS12561762” for “ERS12561817”; conditions: 2 µM
[6] = human gut metagenome, 24 h, 2 µM; remark: listed apart in the source
[7] = as §1, with “WLS-082” for “Z-018”, “human” for “pig”, “ERS12561751” for “ERS12561817”; conditions: 2 µM
[8] = human gut metagenome, 24 h, 2 µM; remark: listed apart in the source
[9] = as §1, with “WLS-220” for “Z-018”, “human” for “pig”, “ERS12561769” for “ERS12561817”; conditions: 2 µM
[10] = human gut metagenome, 24 h, 2 µM; remark: listed apart in the source
[11] = as §1, with “Z-002” for “Z-018”, “rabbit” for “pig”, “ERS12561802” for “ERS12561817”; conditions: 2 µM
[12] = human gut metagenome, 24 h, 2 µM; remark: listed apart in the source
[13] = human gut metagenome, 24 h, 2 µM; remark: listed apart in the source
[14] = as §1, with “Z-019” for “Z-018”, “rat” for “pig”, “ERS12561818” for “ERS12561817”; conditions: 2 µM
[15] = as §1, with “WLS-039” for “Z-018”, “human” for “pig”, “ERS12561746” for “ERS12561817”; conditions: 2 µM
[16] = as §1, with “Z-014” for “Z-018”, “rat” for “pig”, “ERS12561814” for “ERS12561817”; conditions: 2 µM
[17] = human gut metagenome, 24 h, 2 µM; remark: listed apart in the source
[18] = human gut metagenome, 24 h, 2 µM; remark: listed apart in the source
[19] = as §1, with “Z-011” for “Z-018”, “mouse” for “pig”, “ERS12561811” for “ERS12561817”; conditions: 2 µM
[20] = as §1, with “Z-016” for “Z-018”, “mouse” for “pig”, “ERS12561815” for “ERS12561817”; conditions: 2 µM
Also: call rule not given here.

| Structure (SMILES) | Bacterial Biotransformation [1] | Bacterial Biotransformation [2] | Bacterial Biotransformation [3] | Bacterial Biotransformation [4] | Bacterial Biotransformation [5] | Bacterial Biotransformation [6] | Bacterial Biotransformation [7] | Bacterial Biotransformation [8] | Bacterial Biotransformation [9] | Bacterial Biotransformation [10] | Bacterial Biotransformation [11] | Bacterial Biotransformation [12] | Bacterial Biotransformation [13] | Bacterial Biotransformation [14] | Bacterial Biotransformation [15] | Bacterial Biotransformation [16] | Bacterial Biotransformation [17] | Bacterial Biotransformation [18] | Bacterial Biotransformation [19] | Bacterial Biotransformation [20] |
| --- | --- | --- | --- | --- | --- | --- | --- | --- | --- | --- | --- | --- | --- | --- | --- | --- | --- | --- | --- | --- |
| C=CCN1CC[C@]23c4c5ccc(O)c4O[C@H]2C(=O)CC[C@@]3(O)[C@H]1C5 [NALOXONE] | Compound NOT metabolized | Compound NOT metabolized | Compound NOT metabolized | Compound NOT metabolized | Compound NOT metabolized | Compound NOT metabolized | Compound NOT metabolized | Compound NOT metabolized | Compound NOT metabolized | Compound NOT metabolized | Compound NOT metabolized | Compound NOT metabolized | Compound NOT metabolized | Compound NOT metabolized | Compound NOT metabolized | Compound NOT metabolized | Compound NOT metabolized | Compound NOT metabolized | Compound NOT metabolized | Compound NOT metabolized |
| CCc1nn(CCCN2CCN(c3cccc(Cl)c3)CC2)c(=O)n1CCOc1ccccc1 [NEFAZODONE] | Compound NOT metabolized | Compound metabolized | Compound NOT metabolized | Compound metabolized | Compound metabolized | Compound NOT metabolized | Compound metabolized | Compound metabolized | Compound metabolized | Compound metabolized | Compound NOT metabolized | Compound metabolized | Compound NOT metabolized | Compound NOT metabolized | Compound metabolized | Compound NOT metabolized | Compound NOT metabolized | Compound NOT metabolized | Compound NOT metabolized | Compound NOT metabolized |
| CN1CCOC(c2ccccc2)c2ccccc2C1 (stereo not given) [NEFOPAM] | Compound NOT metabolized | Compound NOT metabolized | Compound metabolized | Compound NOT metabolized | Compound NOT metabolized | Compound metabolized | Compound NOT metabolized | Compound NOT metabolized | Compound metabolized | Compound NOT metabolized | Compound NOT metabolized | Compound metabolized | Compound NOT metabolized | Compound NOT metabolized | Compound NOT metabolized | Compound NOT metabolized | Compound NOT metabolized | Compound metabolized | Compound NOT metabolized | Compound NOT metabolized |
| Cc1ccnc2c1NC(=O)c1cccnc1N2C1CC1 [NEVIRAPINE] | Compound NOT metabolized | Compound NOT metabolized | Compound metabolized | Compound metabolized | Compound metabolized | Compound metabolized | Compound NOT metabolized | Compound metabolized | Compound metabolized | Compound NOT metabolized | Compound metabolized | Compound metabolized | Compound NOT metabolized | Compound NOT metabolized | Compound NOT metabolized | Compound NOT metabolized | Compound NOT metabolized | Compound NOT metabolized | Compound NOT metabolized | Compound NOT metabolized |
| CO[C@]12C[C@@H](COC(=O)c3cncc(Br)c3)CN(C)[C@@H]1Cc1cn(C)c3cccc2c13 [NICERGOLINE] | Compound metabolized | Compound NOT metabolized | Compound metabolized | Compound NOT metabolized | Compound NOT metabolized | Compound NOT metabolized | Compound NOT metabolized | Compound NOT metabolized | Compound NOT metabolized | Compound NOT metabolized | Compound metabolized | Compound NOT metabolized | Compound metabolized | Compound NOT metabolized | Compound metabolized | Compound metabolized | Compound NOT metabolized | Compound NOT metabolized | Compound metabolized | Compound metabolized |
| COc1ccc2c(c1OC)C(=O)O[C@@H]2[C@H]1c2c(cc3c(c2OC)OCO3)CCN1C [NOSCAPINE] | Compound metabolized | Compound NOT metabolized | Compound metabolized | Compound metabolized | Compound metabolized | Compound NOT metabolized | Compound NOT metabolized | Compound metabolized | Compound metabolized | Compound NOT metabolized | Compound metabolized | Compound metabolized | Compound NOT metabolized | Compound NOT metabolized | Compound NOT metabolized | Compound metabolized | Compound NOT metabolized | Compound NOT metabolized | Compound metabolized | Compound metabolized |
| CCCc1nc(C(C)(C)O)c(C(=O)OCc2oc(=O)oc2C)n1Cc1ccc(-c2ccccc2-c2nnn[nH]2)cc1 [OLMESARTAN MEDOXOMIL] | Compound metabolized | Compound metabolized | Compound NOT metabolized | Compound metabolized | Compound metabolized | Compound metabolized | Compound metabolized | Compound NOT metabolized | Compound metabolized | Compound NOT metabolized | Compound metabolized | Compound NOT metabolized | Compound metabolized | Compound NOT metabolized | Compound metabolized | Compound NOT metabolized | Compound metabolized | Compound metabolized | Compound NOT metabolized | Compound metabolized |
